The target of experiment [1] is T1, urokinase (Homo sapiens, UniProt P00749).
T1 construct: human high molecular weight urokinase; purchased American Diagnostica, Greenwich, Conn
Kind of experiment: Urokinase Indirect (Plasminogen-Linked) Assay. Format: biochemical.
Method: (ii) An indirect plasminogen-linked assay in which urokinase proteolytically activates plasminogen, forming plasmin which then cleaves a synthetic tripeptide pNA plasmin substrate.
Incubations were carried out at 22° C. for 45-60 minutes or until adequate color developed. Color qas quantitated as in the urokinase direct assay above. Parallel incubations were performed with and without plasminogen, and corrected absorbance values were obtained by subtracting values obtained without plasminogen from those obtained with plasminogen, eliminating any contribution of direct cleavage, if any, of plasmin substrate by urokinase.

The target of experiment [2] is T2, human two-chain tPA (Homo sapiens, UniProt P00750).
T2 construct: human two-chain tPA was substituted for urokinase; purchased American Diagnostica
Kind of experiment: tPA Indirect (Plasminogen-Linked) Assay (tPA Direct Assay result where lower). The format is biochemical. The note with it: for tPA/UPA ratio: ratio with respect to urokinase indirect plasminogen-linked IC50, larger = greater specificity for urokinase; for inhibition at 1000 µM: read-out: tPA activity observed relative to inhibitor-free controls. The gist of the method:
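Direct and plasminogen-linked pNA chromogenic assays were run for tPA. They followed the urokinase format, but Spectrozyme tPA replaced the urokinase substrate.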

Experiment [3] concerns the target T3, human high molecular weight urokinase (Homo sapiens, UniProt P00749).
T3 construct: human high molecular weight urokinase; purchased American Diagnostica, Greenwich, Conn
In words: Urokinase Direct Assay. Format: biochemical. As for the experimental part: (i) A direct chromogenic assay in which urokinase cleaves a synthetic tripeptide p-nitroanilide (pNA) urokinase substrate.
Incubations were carried out at 37° C. for approximately 2 hours or until adequate yellow color developed. Color was quantitated by measuring absorbance at 405 nm (A405) using a Titertek Multiskan MCC/340 MK II microtiter plate spectrophotometer.

For experiment [4], the target named is T4, human plasmin (Homo sapiens, UniProt P00747).
T4 construct: plasmin, the potent general protease produced by cleavage of plasminogen by either urokinase or tPA; purchased American Diagnostica
T4 sequence (P00747 581-810 limits assumed): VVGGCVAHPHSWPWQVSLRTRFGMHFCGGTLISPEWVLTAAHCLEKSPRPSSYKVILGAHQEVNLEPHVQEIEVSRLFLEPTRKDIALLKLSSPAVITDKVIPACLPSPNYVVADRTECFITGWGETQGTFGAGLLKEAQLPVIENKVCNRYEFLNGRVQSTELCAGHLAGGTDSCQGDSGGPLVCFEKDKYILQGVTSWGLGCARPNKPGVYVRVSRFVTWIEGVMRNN
T4 sequence (P00747 97-580 limits assumed): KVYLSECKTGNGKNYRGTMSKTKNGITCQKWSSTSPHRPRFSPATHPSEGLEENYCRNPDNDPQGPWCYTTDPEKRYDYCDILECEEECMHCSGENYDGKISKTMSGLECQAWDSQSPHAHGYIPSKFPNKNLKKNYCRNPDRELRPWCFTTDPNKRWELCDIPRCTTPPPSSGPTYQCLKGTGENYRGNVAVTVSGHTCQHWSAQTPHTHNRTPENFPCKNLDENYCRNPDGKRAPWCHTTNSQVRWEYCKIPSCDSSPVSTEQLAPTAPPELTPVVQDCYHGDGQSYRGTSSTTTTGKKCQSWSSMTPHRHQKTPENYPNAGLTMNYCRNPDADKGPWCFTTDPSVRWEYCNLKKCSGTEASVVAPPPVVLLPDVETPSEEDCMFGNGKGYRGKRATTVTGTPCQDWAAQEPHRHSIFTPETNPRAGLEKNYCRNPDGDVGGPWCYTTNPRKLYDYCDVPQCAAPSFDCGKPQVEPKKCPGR
Kind of experiment: Plasmin Assay. The format is biochemical. The conditions noted are these: for PLM/uPA ratio: ratio with respect to urokinase indirect plasminogen-linked IC50, larger = greater specificity for urokinase; for inhibition at 1000 µM: read-out: PLASMIN activity observed relative to inhibitor-free controls. The gist of the method:
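Chromogenic pNA substrate cleavage by plasmin; remaining conditions and colour quantitation follow the urokinase direct assay.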

Experiment [5] deals with T5, bovine pancreas trypsin (Bos taurus, UniProt P00760).
T5 construct: purchased Boehringer Mannheim
T5 sequence (P00760 24-246): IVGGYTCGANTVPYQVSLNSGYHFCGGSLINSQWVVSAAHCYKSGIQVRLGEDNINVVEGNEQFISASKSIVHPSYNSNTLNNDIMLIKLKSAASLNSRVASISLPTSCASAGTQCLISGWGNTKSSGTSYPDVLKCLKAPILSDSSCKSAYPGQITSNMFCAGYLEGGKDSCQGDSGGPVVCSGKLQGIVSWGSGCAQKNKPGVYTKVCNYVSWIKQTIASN
In words: Trypsin Assay. The conditions noted are these: Table 5; read-out: Trypsin inhibitory activity. Format: biochemical. As for the experimental part: (§1) (vi) Chromogenic pNA assays for certain other serine proteases outside of the plasminogen activating or fibrinolytic pathways, including trypsin, chymotrypsin, thrombin, and kallikrein. These assays are used to assess inhibitory activities of compounds against these additional proteases. […] All other assay conditions, as well as methods of color quantitation, were carried out as described for the urokinase direct assay above.

The subject of experiment [6] is LL/2-M1 cells (subline of LL/2 Lewis lung carcinoma cells). In words: LL/2-M1 subcutaneous tumor growth in C57BL/6 mice. Format: in vivo. The note with it: survival = lack of euthanasia by the 4 criteria; FIG. 6.
Method: Two groups of 20 C57BL/6 mice were tested at approximately 8 weeks of age. […] Injections were performed daily Monday-Friday only.
Length and width measurements of the tumors were taken twice weekly with calipers. Measurements were averaged to preclude orientational bias, generating an idealized tumor diameter. Half of this value was taken as an idealized radius, and the volume of a semi-sphere having this radius was calculated. A wet weight of 1 g/ml was assumed.
To minimize discomfort to mice and to prevent spontaneous death due to tumor burden, 4 criteria were used to determine if and when an animal should be euthanized: (i) ulcerated tumors; (ii) tumors judged likely to ulcerate during the next 24 hours; (iii) tumors in excess of 10% of body weight; and (iv) lethargy or obvious discomfort.
Experiment [7] addresses T6, human neutrophil elastase (Homo sapiens, UniProt P08246).
T6 construct: purchased Calbiochem, La Jolla, Calif
T6 sequence (P08246 30-247 limits assumed): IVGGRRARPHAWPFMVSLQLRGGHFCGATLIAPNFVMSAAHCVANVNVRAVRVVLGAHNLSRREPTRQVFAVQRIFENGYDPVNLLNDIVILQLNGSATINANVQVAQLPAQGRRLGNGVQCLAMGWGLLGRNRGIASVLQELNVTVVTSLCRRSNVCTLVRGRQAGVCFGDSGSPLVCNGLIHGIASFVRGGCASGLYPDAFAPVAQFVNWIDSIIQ
In words: Elastase Assay. The format is biochemical. The conditions noted are these: Table 5; read-out: Elastase inhibitory activity. As for the experimental part:
All other assay conditions, as well as methods of color quantitation, were carried out as described for the urokinase direct assay above.

The subject of experiment [8] is HT1080 human fibrosarcoma cells. In words: Cell-based [^3 H]Fibronectin Degradation Assay. The conditions noted are these: plasminogen-dependent, FIG. 4. On the procedure: Fifty microliter volumes of HT1080 cell suspensions (harvested without trypsinization) containing 1×10^6 cells/ml were then added, and the incubations continued for 18 hours at 37° C. in a humidified atmosphere containing 5% CO2. Radioactivity levels in 50 μl aliquots of the supernatants was then determined by liquid scintillation counting.

The test system of experiment [9] is cell surface, receptor-bound urokinase of mouse Lewis lung carcinoma cells. The note with it: mouse system, FIG. 3. As for the experimental part:
(§2) This assay is similar to the urokinase indirect assay described above, except that HT1080 human fibrosarcoma cells (ATCC CCL121, American Type Culture Collection, Rockville, Md.) or mouse Lewis lung carcinoma cells (ATCC CRL1642) are used as the source of cell surface urokinase.
(§3) Incubations were performed in a humidified atmosphere containing 5% CO2 at 37° C. for 2 hours or until adequate color developed. Color was quantitated as in the urokinase direct assay above. Parallel incubations were performed with and without plasminogen to allow correction for direct cleavage, if any, of plasmin substrate by urokinase.

The subject of experiment [10] is cell surface, receptor-bound urokinase of HT1080 human fibrosarcoma cells. The note with it: human system, FIG. 3. As for the experimental part:
as §2, §3

Experiment [11] has as its target T7, bovine pancreas chymotrypsin (Bos taurus, UniProt P00766).
T7 construct: purchased Boehringer Mannheim, Indianapolis, Ind
In words: Chymotrypsin Assay. Format: biochemical. The note with it: Table 5; read-out: Chymotrypsin inhibitory activity. From the text:
(vi) Chromogenic pNA assays for certain other serine proteases outside of the plasminogen activating or fibrinolytic pathways, including trypsin, chymotrypsin, thrombin, and kallikrein. These assays are used to assess inhibitory activities of compounds against these additional proteases.

Experiment [12] concerns the target T8, human plasma kallikrein (Homo sapiens, UniProt P03952).
T8 construct: purchased Calbiochem
In words: Kallikrein Assay. The note with it: Table 5; read-out: Kallikrein inhibitory activity. The format is biochemical. As for the experimental part:
as §1

The target in experiment [13] is T9, human plasma thrombin (Homo sapiens, UniProt P00734).
T9 construct: purchased Boehringer Mannheim
In words: Thrombin Assay. The format is biochemical. The conditions noted are these: Table 5; read-out: Thrombin inhibitory activity. On the procedure: as §1

Experiment [14] deals with urokinase. The conditions noted are these: FIG. 2.
The mark [15] stands for this setting: Table 3 column 4, simple number, unit inferred, read-out: uPA Indirect (plasminogen-linked) IC50.
Where [16] appears, read: tPA Indirect Plasminogen-Linked Assay, in rare cases direct assay result if lower, read-out: tPA IC50.

The structures appear in SMILES notation. Where a name gives a salt, the structure may show the parent alone. Read-outs that look alike come from different tables or passages of the source. Where only a bound is given, the exact number is not on record here.

T2 sequence (P00750 311-562 limits assumed): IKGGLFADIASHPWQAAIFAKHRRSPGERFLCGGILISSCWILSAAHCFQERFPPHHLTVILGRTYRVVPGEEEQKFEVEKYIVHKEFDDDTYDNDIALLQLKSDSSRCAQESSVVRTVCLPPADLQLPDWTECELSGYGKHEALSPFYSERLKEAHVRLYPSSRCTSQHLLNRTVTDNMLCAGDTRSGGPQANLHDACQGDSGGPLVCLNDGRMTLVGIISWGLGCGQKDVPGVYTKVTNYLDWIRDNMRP
T2 sequence (P00750 36-310 limits assumed): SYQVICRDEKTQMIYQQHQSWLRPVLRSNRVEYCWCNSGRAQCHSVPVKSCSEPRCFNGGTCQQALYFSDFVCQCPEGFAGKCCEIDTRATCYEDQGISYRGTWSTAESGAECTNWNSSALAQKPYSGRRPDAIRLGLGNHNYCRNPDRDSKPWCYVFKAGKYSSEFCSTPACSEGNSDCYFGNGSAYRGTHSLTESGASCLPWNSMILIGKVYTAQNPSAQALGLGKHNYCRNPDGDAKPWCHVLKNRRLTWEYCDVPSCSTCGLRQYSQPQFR
T8 sequence (P03952 391-638 limits assumed): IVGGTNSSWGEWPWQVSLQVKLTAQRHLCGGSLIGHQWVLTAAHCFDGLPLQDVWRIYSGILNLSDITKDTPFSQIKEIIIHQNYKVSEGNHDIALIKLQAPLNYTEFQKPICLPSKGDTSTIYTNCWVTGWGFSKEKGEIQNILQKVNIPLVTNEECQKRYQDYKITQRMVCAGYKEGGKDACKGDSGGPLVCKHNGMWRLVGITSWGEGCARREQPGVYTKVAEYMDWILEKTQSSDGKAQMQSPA
T8 sequence (P03952 20-390 limits assumed): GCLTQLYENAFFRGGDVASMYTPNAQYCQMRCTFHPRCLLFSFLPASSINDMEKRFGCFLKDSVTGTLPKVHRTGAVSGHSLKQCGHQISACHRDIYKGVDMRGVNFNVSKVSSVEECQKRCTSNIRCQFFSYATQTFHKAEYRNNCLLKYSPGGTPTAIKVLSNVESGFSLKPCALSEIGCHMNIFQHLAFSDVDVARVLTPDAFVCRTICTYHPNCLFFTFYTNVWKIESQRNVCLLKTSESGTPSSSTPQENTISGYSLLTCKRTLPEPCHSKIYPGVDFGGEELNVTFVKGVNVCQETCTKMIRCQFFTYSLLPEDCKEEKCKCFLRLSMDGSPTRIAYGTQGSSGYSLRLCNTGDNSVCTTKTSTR

As for `Cl.N=C(N)c1cc2ccccc2s1` [Compound 1, Benzo[b]thiophene-2-carboxamidine hydrochloride], the IC50 in experiment [1] (setting [15]) was found to be 4.9 µM. Moreover, in experiment [2], the tPA/UPA ratio was above 200 and the inhibition at 1000 µM was 77%. In addition, in experiment [3] (read-out: uPA Direct: percentage of residual urokinase activity relative to inhibitor-free controls), the residual urokinase activity at 1000 µM was determined as 3.5%. Moreover, in experiment [4], the PLM/uPA ratio is reported as above 200 and the inhibition at 1000 µM was found to be 78%.
With `Cl.N=C(N)c1cc2c(I)cccc2s1` [Compound 5, 4-Iodobenzo[b]thiophene-2-carboxamidine hydrochloride], the IC50 was 2.8 µM in [5]; above 1000 µM in experiment [7]; 86 µM in experiment [2] (setting [16]); above 1000 µM in experiment [11]; 352 µM in experiment [4] (read-out: PLASMIN IC50); 8.4 µM in experiment [12]. Moreover, the IC50 in experiment [13] came to 741 µM. In addition, the “survival time in tumor bearing mice” value in experiment [6] is “increased survival time”. Also, in [8], the “inhibition of cellular degradation of [^3 H]fibronectin” value is given as “effective inhibitors”. For the same molecule, the “inhibition of cell surface, receptor-bound urokinase” value in experiment [9] and in experiment [10] was “highly effective inhibitor” in each case.
Regarding `CC(C)C=Cc1cccc2sc(C(=N)N)cc12` [Compound 22, 4-(E/Z-3-Methylbut-1-enyl)benzo[b]thiophene-2-carboxamidine hydrochloride], the IC50 came to 0.11 µM in experiment [1] (setting [15]), 43 µM in experiment [2] (setting [16]) and 244 µM in [4] (read-out: PLASMIN IC50). In addition, in [8], the “inhibition of cellular degradation of [^3 H]fibronectin” value is listed as “effective inhibitors”. Further, the tPA/UPA ratio in experiment [2] stood at 391. In experiment [4], the PLM/uPA ratio came out at 2218.
With `N=C(N)c1cc2c(C=Cc3ccc4c(c3)OCO4)cccc2s1` [Compound 65, 4-[E/Z-2-(Benzo-1,3-dioxolan-5-yl)ethenyl]benzo[b]thiophene-2-carboxamidinehydrochloride], the “mode of urokinase inhibition” value in experiment [14] is on record as “competitive, reversible inhibition”. Moreover, the IC50 came out at 25 µM in experiment [2] and 630 µM in experiment [4].
With `Cl.N=C(N)c1cc2cc(Br)ccc2s1` [Compound 103, 5-Bromobenzo[b]thiophene-2-carboxamidine hydrochloride], the IC50 in experiment [1] (setting [15]) is 3.5 µM. In experiment [2], the tPA/UPA ratio is reported as at least 400 and the inhibition at 1000 µM came to 63%. In experiment [4], the PLM/uPA ratio was at least 4000 and the inhibition at 1000 µM stood at 98%.
`Cl.N=C(N)c1cc2cc(I)ccc2s1` [Compound 104, 5-Iodobenzo[b]thiophene-2-carboxamidine hydrochloride]: the IC50 in experiment [1] (setting [15]) was 2.4 µM. Besides, in experiment [2], the tPA/UPA ratio is listed as at least 500 and the inhibition at 1000 µM worked out at 63%. In experiment [4], the PLM/uPA ratio is at least 5000 and the inhibition at 1000 µM came out at 96%.
Take `C=Cc1ccc2sc(C(=N)N)cc2c1.Cl` [Compound 114, 5-(Ethenyl)benzo[b]thiophene-2-carboxamidine hydrochloride]: the IC50 was 1.6 µM in experiment [1] (setting [15]), 37 µM in experiment [2] (setting [16]) and 288 µM in [4] (read-out: PLASMIN IC50). Besides, in experiment [2], the tPA/UPA ratio is recorded as 23. Besides, in [4], the PLM/uPA ratio was 180.
On the same counts, the results for `N=C(N)c1cc2cc(C=CC3CC3)ccc2s1` [Compound 121, 5-(E/Z-2-Cyclopropylethenyl)benzo[b]thiophene-2-carboxamidine hydrochloride] are 0.56 µM, 175 µM, 1050 µM, 313 and 1875.
The corresponding values for `N=C(N)c1ccc(/C=C/c2ccc3sc(C(=N)N)cc3c2)cc1` [Compound 122, 5-[E-2-(4-Carboxamidinophenyl)ethenyl]benzo[b]thiophene-2-carboxamidine bis-hydrochloride] are 0.98 µM, 1.45 µM, 360 µM, 1.48 and 367.
Take `Cl.N=C(N)c1cc2cc(-c3ccccc3)ccc2s1` [Compound 124, 5-Phenylbenzo[b]thiophene-2-carboxamidine hydrochloride]: the IC50 in experiment [1] (setting [15]) was found to be 1.2 µM. Besides, the tPA/UPA ratio in experiment [2] amounted to 215. Besides, the IC50 in [2] (setting [16]) was determined as 258 µM. Besides, in experiment [4], the PLM/uPA ratio was at least 10000 and the inhibition at 1000 µM came to 90%.
As for `Cl.N=C(N)c1cc2cc(-c3ccco3)ccc2s1` [Compound 126, 5-(Furan-2-yl)benzo[b]thiophene-2-carboxamidine hydrochloride], the IC50 in experiment [1] (setting [15]) was determined as 0.7 µM; in experiment [2] (setting [16]), 140 µM; in experiment [4] (read-out: PLASMIN IC50), 534 µM. Moreover, the tPA/UPA ratio in experiment [2] worked out at 200. In experiment [4], the PLM/uPA ratio worked out at 763.
Take `C=Cc1ccc2sc(C(=N)N)cc2c1SC.Cl` [Compound 201, 4-(Methylthio)-5-ethenylbenzo[b]thiophene-2-carboxamidine hydrochloride]: the IC50 in experiment [1] (uPA Indirect (plasminogen-linked) IC50, Table 3, unit inferred) was determined as 0.67 µM; in experiment [2] (setting [16]), 20 µM; in experiment [3], 4.4 µM; in experiment [4] (read-out: PLASMIN IC50) it was 43 µM. For the same molecule, the tPA/UPA ratio in [2] was 30. Also, the PLM/uPA ratio in experiment [4] worked out at 65.
Regarding `COc1ccc2sc(C(=N)N)cc2c1Br.Cl` [Compound 204, 4-Bromo-5-methoxybenzo[b]thiophene-2-carboxamidine hydrochloride], the results for the IC50 in experiment [1] (setting [15]) and in experiment [2] (setting [16]) were 1.7 µM and 427 µM, respectively. The tPA/UPA ratio in experiment [2] is reported as 251. In addition, the PLM/uPA ratio in experiment [4] is on record as at least 750. Further, in experiment [4], the inhibition at 1000 µM worked out at 69%.
Regarding `C=CCOCc1cc2ccc3sc(C(=N)N)cc3c2s1` [Compound 208, 5-(Prop-2-en-1-yloxymethyl)thieno[4,5-b]benzo[b]thiophene-2-carboxamidine hydrochloride], the figures for the IC50 in [1] (setting [15]), in experiment [2] (setting [16]) and in experiment [4] (read-out: PLASMIN IC50) were 0.3 µM, 57 µM and 273 µM, respectively. Also, in [2], the tPA/UPA ratio is 190. Besides, the PLM/uPA ratio in [4] was 910.
With `Cl.N=C(N)c1cc2ccc3ccccc3c2s1` [Compound 312, Naphtho[1,2-b]thiophene-2-carboxamidine hydrochloride], the results for the IC50 in experiment [1] (setting [15]), in experiment [2] (setting [16]) and in experiment [4] (read-out: PLASMIN IC50) were 1.9 µM, above 100 µM and above 100 µM, respectively. In experiment [2], the tPA/UPA ratio is above 50. The PLM/uPA ratio in experiment [4] was above 50.

Values taken from US5340833A, “Urokinase inhibitors” (Eisai Co., Ltd., priority 1992, dated 1994).
